In US20220267734A1, “HETEROGENEOUS STEM CELL POPULATION, PREPARATION METHOD THEREFOR AND USE THEREOF” (INSTITUTE OF BASIC MEDICAL SCIENCES, CHINESE ACADEMY OF …, priority 2019, published 2022):

How the values were obtained:
[1] = tested on: human brain pericytes (HBPs); assay: q-PCR gene expression in human brain pericytes under IL-1β with or without DAPT or PDTC; type: cell-based; conditions: for gene expression of TIMP-1: among control, IL-1β and IL-1β+inhibitor groups
From the text: We added interleukin 1β (IL-1β) to Transwell in vitro blood-brain barrier model, and cultured human brain microvascular endothelial cells (HBMVECs), human brain pericytes (HBPs) and human brain astrocytes (HBAs) in vitro. We verified HBMVECs, HBPs and HBAs by immunofluorescence staining. Among them, HBMVEC was stained with the antibody against vWF; HBP was stained with the antibodies against α-SMA and NG2, and vWF and GFAP antibodies; and HBA was stained with GFAP antibody (FIG. 8B). […] HBPs were treated with IL-1β for 30 minutes followed by DAPT treatment for 24 hours, and were subjected to q-PCR quantification. It could be seen from FIG. 8E that, compared with the control group, the gene expression of NOTCH3 in the IL-1β group was increased; compared with the IL-1β group, the gene expression of NOTCH3 in the IL-1β+DAPT group was reduced.

[2] = tested on: subpluripotent stem cells; assay: IRISIN-induced differentiation into beige adipocytes (UCP1 marker); type: cell-based; conditions: marker protein UCP1 by real-time fluorescence quantification and western blotting, P<0.05
From the text: In recent years, a new hormone IRISIN has been discovered, which is a muscle factor secreted after exercise. It is released from the cleavage of its precursor—fibronectin III domain containing 5 (Fndc5), and is involved in the function of the muscles, the cardiovascular system, the nerves and energy metabolism. In the process of energy regulation, IRISIN is a potential regulator in sugar metabolism. In this study, we used the heterogeneous stem cell population of the present invention as seed cells, and used IRISIN to induce them to differentiate into beige adipocytes (see FIG. 9).
The adipose tissue was washed twice with D-Hanks' solution containing dual antibiotics (penicillin, streptomycin), and centrifuged at 800 rpm for 3 min. The lower layer of the liquid after washing was removed with a pipette and the adipose tissue was transferred to a new centrifugation tube of 50 ml. 0.2% collagenase P was added for digestion. The tube was incubated in a shaker at a constant temperature of 37° C. for 30 min. An appropriate amount of D-Hanks' solution was added to the digested adipose tissue, which was then filtered with a […] cell sieve to remove undigested tissue. The mixture was centrifuged at 1500 rpm for 10 min. The upper layer of grease was removed with a pipette, then the supernatant was discarded and the cell pellet was re-suspended in D-Hanks' solution and washed once. […]

[3] = IL-1β 30 minutes then inhibitor 24 hours, compared with the IL-1β group
[4] = IL-1β group compared with the control group

C[C@H](NC(=O)Cc1cc(F)cc(F)c1)C(=O)N[C@H](C(=O)OC(C)(C)C)c1ccccc1 [DAPT]
gene expression of MMP-9 [1, 3]: significantly lower | gene expression of NF-κB p65 [1, 3]: significantly reduced | gene expression of NOTCH3 [1, 3]: reduced | gene expression of TIMP-1 [1]: did not change much

N.S=C(S)N1CCCC1 [PDTC]
gene expression of NOTCH3 [1, 3]: did not change much | gene expression of TIMP-1 [1]: did not change significantly

IL-1β: interleukin 1β added to Transwell in vitro blood-brain barrier model
gene expression of MMP-9 [1, 4]: significantly increased | gene expression of NF-κB p65 [1, 4]: significantly increased | gene expression of NOTCH3 [1, 4]: increased

B1: IRISIN: muscle factor secreted after exercise, released by cleavage of Fndc5 (protein, UniProt Q8NAU1 1-191, looked up)
Irisin: MQAARGGAGRPERPGRPGRGPERERERPPGAGAASPCAAPGLPAGGATIHPGSPSAWPPRARAALRLWLGCVCFALVQADSPSAPVNVTVRHLKANSAVVSWDVLEDEVVIGFAISQQKKDVRMLRFIQEVNTTTRSCALWDLEEDTEYIVHVQAISIQGQSPASEPVLFKTPREAEKMASKNKDEVTMKE
modifications: Irisin
notes: muscle factor secreted after exercise, released by cleavage of Fndc5
differentiation into beige adipocytes [2]: induces the differentiation
